Results on 2 compounds are retold here after US8268854B2, “Aza-beta-carbolines and methods of using same” (The UWM Research Foundation, Inc., priority 2008, dated 2012).

Where a name gives a salt, the structure may show the parent alone. A value given as a limit tells only on which side of the number the result lay.

One experiment deals with T1, Serotonin receptor 5ht1b (Homo sapiens, UniProt P28222).
T1 construct: expressed in transfected cells
Kind of experiment: PDSP primary radioligand binding assay. The note with it: compound 10 μM. The procedure: (§1) Primary and secondary radioligand binding assays are performed. In general, the primary assay is run at very high ligand (compound) concentration as a broad screen to determine whether a compound binds to a particular receptor. If greater than 50% inhibition at 10 μM (high concentration of compound) at a particular receptor is determined, a secondary assay is performed on that receptor. Data from the secondary assay is the binding affinity (Ki value).
(§2) A solution of the compound to be tested is prepared as a 1 mg/ml stock in Standard Binding Buffer or dimethyl sulfoxide (DMSO) according to its solubility. A similar stock of a reference compound (positive control) is also prepared.
(§3) Radioligand (radioligands are presented in Table 39) is diluted to five times the assay concentration (assay concentrations are presented in Table 39) in Standard Binding Buffer. Typically, the assay concentration of radioligand is a value between one half the KD and the KD of a particular radioligand at its target. Aliquots (50 μL) of radioligand are dispensed into the wells of a 96-well plate (see FIG. 11) containing 100 μL of Standard Binding Buffer (Table 40). Then, duplicate 50 μL aliquots of the test and reference compound dilutions are added (see FIG. 11). According to FIG. 11, increasing concentrations (from left to right) of reference or test compound (diluted in buffer) are added (50 μL aliquots, in duplicate) from 5× stock solutions to wells containing 50 μL of 5× radioligand (fixed concentration, prepared in buffer) and 100 μL of buffer. Finally, 50 μL of receptor-containing membrane homogenate (5× suspension in buffer) are added to achieve a final assay volume of 250 μL. Final concentrations of reference or test compound are listed above the columns in FIG. 11.
(§4) Finally, crude membrane fractions of cells expressing recombinant target (prepared from 10 cm plates by harvesting phosphate buffered saline (PBS)-rinsed monolayers, resuspending and lysing in chilled, hypotonic 50 mM Tris-HCl, pH 7.4, centrifuging at 20,000×g, decanting the supernatant and storing at −80° C.; typically, one 10 cm plate provides sufficient material for 24 wells) are resuspended in 3 mL of chilled Standard Binding Buffer and homogenized by several passages through a 26 gauge needle, and then 50 μL are dispensed into each well.
(§5) The 250 μL reactions are incubated at room temperature and shielded from light (to prevent photolysis of light-sensitive ligands) for 1.5 hours, then harvested by rapid filtration onto Whatman GF/B glass fiber filters pre-soaked with 0.3% polyethyleneimine using a 96-well Brandel harvester. Four rapid 500 μL washes are performed with chilled Standard Binding Buffer to reduce non-specific binding. Filters are placed in 6 mL scintillation tubes and allowed to dry overnight. The next day, 4 mL of EcoScint scintillation cocktail (National Diagnostics) are added to each tube. The tubes are capped, labeled, and counted by liquid scintillation counting. For higher throughput assays, bound radioactivity is harvested onto 0.3% polyethyleneimine-treated, 96-well filter mats using a 96-well Filtermate harvester. The filter mats are dried, then scintillant is melted onto the filters, and the radioactivity retained on the filters is counted in a Microbeta scintillation counter.
(§6) Raw data (dpm) representing total radioligand binding (i.e., specific+non-specific binding) are plotted as a function of the logarithm of the molar concentration of the competitor (i.e., test or reference compound). […]

In a further experiment the target is T2, SERT transporter (Homo sapiens, UniProt P31645).
T2 construct: expressed in transfected cells
Kind of experiment: PDSP primary radioligand binding assay. The following applies: compound 10 μM, n=4, read-out: mean percentage inhibition, SERT transporter. The protocol:
as §1, §2, §3, §4, §5, §6

The next experiment concerns the target T3, Dopamine receptor D2 (Homo sapiens, UniProt P14416).
T3 construct: expressed in transfected cells
Kind of experiment: PDSP secondary radioligand binding assay. The procedure: as §1
This assay is used to test binding to receptors such as the serotonin receptors: 5-HT1A, 5-HT1B, 5-HT1D, 5-HT1E, 5-HT2A, 5-HT2B, 5-HT2C, 5-HT3, 5-HT5A, 5-HT6 and 5-HT7. The protocol is adapted from Roth et al. J. Pharmacol. Exp. Ther. 1986, 238, 480-485 and Roth et al. J. Pharmacol. Exp. Ther. 1994, 268, 1403-1410. The assay buffer is Standard Binding Buffer (50 mM Tris-HCl, 10 mM MgCl2, 0.1 mM EDTA, pH 7.4). The membrane fraction source is transiently or stably transfected cell lines (e.g., HEK293, COS, CHO, NIH3T3).
A solution of the compound to be tested is prepared as a 1 mg/mL stock in Standard Binding Buffer or DMSO according to its solubility. A similar stock of a reference compound (positive control) is also prepared.
Radioligand (see Table 41) is diluted to five times the assay concentration (see Table 21) in Standard Binding Buffer. […]
as §5, with “Four rapid 500 μL washes are performed with chilled Standard Binding Buffer to reduce non-specific binding. Filters are placed in 6 mL scintillation tubes and allowed to dry overnight. The next day, 4 mL of EcoScint scintillation cocktail (National Diagnostics) are added to each tube.” left out, “counter. […]” for “counter.”

For the next experiment, the target named is T4, NET transporter (Homo sapiens, UniProt P23975).
T4 construct: expressed in transfected cells
Nature of the experiment: PDSP primary radioligand binding assay. The following applies: compound 10 μM. The protocol: as §1, §2, §3, §4, §5, §6

T3 sequence (P14416 whole entry): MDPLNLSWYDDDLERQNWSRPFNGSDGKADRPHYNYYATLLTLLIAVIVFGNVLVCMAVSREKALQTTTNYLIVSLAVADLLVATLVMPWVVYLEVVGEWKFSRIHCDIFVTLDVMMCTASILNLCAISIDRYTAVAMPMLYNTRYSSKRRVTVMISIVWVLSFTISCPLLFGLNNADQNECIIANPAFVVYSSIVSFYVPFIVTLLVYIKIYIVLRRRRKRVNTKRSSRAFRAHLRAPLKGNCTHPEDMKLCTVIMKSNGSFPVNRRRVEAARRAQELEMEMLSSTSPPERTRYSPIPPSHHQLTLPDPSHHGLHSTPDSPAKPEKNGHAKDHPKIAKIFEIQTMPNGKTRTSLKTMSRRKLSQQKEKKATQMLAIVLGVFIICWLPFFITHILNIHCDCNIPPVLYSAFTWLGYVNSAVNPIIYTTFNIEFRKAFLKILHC
T4 sequence (P23975 whole entry): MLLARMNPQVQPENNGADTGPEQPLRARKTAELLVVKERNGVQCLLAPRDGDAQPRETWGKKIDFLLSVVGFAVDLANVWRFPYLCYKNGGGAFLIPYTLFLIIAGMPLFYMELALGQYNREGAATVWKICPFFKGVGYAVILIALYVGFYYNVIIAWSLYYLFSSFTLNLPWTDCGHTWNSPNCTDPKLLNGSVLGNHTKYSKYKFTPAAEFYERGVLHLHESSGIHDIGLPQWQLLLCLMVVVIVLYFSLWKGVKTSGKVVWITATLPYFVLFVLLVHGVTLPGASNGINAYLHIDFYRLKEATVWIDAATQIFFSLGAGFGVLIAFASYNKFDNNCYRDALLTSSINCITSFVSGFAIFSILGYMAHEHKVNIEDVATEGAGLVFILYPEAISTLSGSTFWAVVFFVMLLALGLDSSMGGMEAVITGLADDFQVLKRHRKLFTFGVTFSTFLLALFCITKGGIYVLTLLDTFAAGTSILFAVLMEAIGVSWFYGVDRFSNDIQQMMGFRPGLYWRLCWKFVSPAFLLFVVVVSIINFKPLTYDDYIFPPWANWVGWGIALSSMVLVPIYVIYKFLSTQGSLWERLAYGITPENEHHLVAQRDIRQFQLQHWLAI
T1 sequence (P28222 whole entry): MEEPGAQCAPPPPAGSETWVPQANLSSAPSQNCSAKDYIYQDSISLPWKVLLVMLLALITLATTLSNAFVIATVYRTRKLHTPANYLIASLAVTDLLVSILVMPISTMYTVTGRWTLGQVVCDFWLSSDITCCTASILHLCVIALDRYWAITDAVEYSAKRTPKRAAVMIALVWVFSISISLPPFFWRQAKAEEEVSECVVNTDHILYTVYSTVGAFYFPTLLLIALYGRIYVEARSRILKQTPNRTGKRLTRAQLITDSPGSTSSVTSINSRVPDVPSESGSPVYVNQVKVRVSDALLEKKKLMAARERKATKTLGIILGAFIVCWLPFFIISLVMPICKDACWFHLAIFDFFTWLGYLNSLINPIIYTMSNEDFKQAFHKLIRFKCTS
T2 sequence (P31645 whole entry): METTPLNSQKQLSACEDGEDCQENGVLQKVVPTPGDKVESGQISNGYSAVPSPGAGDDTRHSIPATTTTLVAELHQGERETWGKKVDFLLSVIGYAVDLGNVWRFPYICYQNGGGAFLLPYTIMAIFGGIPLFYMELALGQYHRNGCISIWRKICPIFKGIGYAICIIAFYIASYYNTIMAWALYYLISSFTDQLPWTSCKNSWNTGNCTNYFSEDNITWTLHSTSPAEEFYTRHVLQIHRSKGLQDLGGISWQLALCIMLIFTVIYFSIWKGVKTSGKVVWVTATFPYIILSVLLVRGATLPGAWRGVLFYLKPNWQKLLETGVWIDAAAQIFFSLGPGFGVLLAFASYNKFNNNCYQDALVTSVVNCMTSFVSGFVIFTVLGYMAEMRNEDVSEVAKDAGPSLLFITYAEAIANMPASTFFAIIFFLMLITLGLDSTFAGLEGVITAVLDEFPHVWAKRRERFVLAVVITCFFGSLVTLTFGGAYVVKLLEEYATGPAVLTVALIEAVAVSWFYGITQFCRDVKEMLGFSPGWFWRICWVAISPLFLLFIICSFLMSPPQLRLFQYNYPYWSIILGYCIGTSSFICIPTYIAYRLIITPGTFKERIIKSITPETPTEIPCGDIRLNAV

Turning to `CCCOc1cc2c(cn1)[nH]c1ccncc12` [Compound 2, 8-Propoxypyridino[4′,3′-5,4]pyrrolo[3,2-c]pyridine hydrochloride], the “mean percentage inhibition, Serotonin receptor 5ht1b” value on Serotonin receptor 5ht1b (n=4, hydrochloride, 10 µM) was 47%. In addition, the inhibition at 10 µM at Serotonin receptor 5ht1b (n=4, read-out: mean percentage inhibition, Serotonin receptor 5ht1b) was < 50%; on SERT transporter, 22.1%. Further, at Dopamine receptor D2, the Ki was > 10 µM.

`CCCOc1cc2c(cn1)[nH]c1cnccc12` [Compound 4, 3-Propoxy pyridino[4′,3′-4,5]pyrrolo[2,3-c]pyridine hydrochloride]: the “mean percentage inhibition, NET transporter” value on NET transporter (n=4, hydrochloride, 10 µM) is 36.8%. Besides, the inhibition at 10 µM on NET transporter (n=4, read-out: mean percentage inhibition, NET transporter) is < 50%. At Dopamine receptor D2, the Ki was > 10 µM.
